Read-outs that look alike come from different tables or passages of the source.
What was measured:
Type in all cases: binding
[1] = molecular target: T1, HeLa cell extract proteins (Homo sapiens, UniProt P61619)
T1 construct: endogenous in cells; host or cells: HeLa cell extract

[2] = molecular target: T2, HeLa cell extract proteins (Homo sapiens, UniProt O60884)
T2 construct: endogenous in cells; host or cells: HeLa cell extract

[3] = molecular target: T3, HeLa cell extract proteins (Homo sapiens, UniProt P35080)
T3 construct: endogenous in cells; host or cells: HeLa cell extract
T3 sequence (P35080 1-140): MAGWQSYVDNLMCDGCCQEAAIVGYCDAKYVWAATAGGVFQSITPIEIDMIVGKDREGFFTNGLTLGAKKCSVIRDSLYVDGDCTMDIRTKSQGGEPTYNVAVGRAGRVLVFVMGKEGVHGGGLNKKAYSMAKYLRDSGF

[4] = molecular target: T4, HeLa cell extract proteins (Homo sapiens, UniProt Q6JQN1)
T4 construct: endogenous in cells; host or cells: HeLa cell extract
T4 sequence (Q6JQN1 1-1059): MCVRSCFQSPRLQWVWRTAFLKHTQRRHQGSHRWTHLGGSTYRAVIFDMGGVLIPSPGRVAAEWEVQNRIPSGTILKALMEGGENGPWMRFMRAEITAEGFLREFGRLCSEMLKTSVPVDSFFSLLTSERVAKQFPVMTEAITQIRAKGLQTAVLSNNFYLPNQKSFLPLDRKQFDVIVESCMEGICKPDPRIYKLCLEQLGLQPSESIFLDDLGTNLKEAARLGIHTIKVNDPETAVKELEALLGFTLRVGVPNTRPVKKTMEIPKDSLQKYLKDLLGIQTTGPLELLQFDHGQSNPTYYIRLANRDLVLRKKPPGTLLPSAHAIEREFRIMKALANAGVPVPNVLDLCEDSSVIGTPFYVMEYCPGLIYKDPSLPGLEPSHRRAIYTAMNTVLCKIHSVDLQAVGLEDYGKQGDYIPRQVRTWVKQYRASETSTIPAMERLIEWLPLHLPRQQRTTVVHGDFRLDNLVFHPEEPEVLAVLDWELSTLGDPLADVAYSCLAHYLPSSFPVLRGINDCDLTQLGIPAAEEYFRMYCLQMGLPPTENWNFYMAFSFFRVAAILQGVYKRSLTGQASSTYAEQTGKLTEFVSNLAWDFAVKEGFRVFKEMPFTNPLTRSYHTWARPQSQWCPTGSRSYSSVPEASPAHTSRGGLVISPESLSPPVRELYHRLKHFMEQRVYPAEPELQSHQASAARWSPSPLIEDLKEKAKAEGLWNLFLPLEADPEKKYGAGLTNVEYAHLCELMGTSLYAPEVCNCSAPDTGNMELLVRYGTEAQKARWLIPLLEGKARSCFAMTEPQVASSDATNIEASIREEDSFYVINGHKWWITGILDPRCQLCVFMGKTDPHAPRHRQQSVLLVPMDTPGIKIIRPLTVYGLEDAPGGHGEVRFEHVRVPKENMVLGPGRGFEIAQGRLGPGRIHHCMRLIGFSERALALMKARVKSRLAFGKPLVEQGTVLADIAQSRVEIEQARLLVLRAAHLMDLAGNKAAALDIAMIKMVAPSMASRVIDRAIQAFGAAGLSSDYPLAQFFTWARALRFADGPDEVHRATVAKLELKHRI

[5] = molecular target: T5, HeLa cell extract proteins (Homo sapiens, UniProt P46977)
T5 construct: endogenous in cells; host or cells: HeLa cell extract
T5 sequence (P46977 1-705): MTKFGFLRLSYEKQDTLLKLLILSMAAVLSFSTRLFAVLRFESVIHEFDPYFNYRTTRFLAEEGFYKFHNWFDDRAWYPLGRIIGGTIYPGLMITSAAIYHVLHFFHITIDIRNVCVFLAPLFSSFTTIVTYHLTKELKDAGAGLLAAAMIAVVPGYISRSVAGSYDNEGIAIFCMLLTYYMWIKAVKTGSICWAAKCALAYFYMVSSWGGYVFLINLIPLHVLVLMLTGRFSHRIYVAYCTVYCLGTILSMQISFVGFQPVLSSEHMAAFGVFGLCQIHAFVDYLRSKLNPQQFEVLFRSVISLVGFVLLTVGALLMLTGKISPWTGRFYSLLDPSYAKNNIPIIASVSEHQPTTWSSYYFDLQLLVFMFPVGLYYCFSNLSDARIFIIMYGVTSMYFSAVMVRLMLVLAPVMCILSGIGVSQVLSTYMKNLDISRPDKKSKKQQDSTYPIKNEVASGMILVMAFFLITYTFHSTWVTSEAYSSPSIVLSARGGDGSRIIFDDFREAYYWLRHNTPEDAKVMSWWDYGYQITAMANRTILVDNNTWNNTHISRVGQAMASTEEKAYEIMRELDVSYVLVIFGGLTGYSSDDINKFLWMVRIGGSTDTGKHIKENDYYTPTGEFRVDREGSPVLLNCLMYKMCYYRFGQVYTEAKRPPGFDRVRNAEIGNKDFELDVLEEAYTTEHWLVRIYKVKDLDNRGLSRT

[6] = molecular target: T6, HeLa cell extract proteins (Homo sapiens, UniProt P49327)
T6 construct: endogenous in cells; host or cells: HeLa cell extract

[7] = molecular target: T7, HeLa cell extract proteins (Homo sapiens, UniProt O95218)
T7 construct: endogenous in cells; host or cells: HeLa cell extract
T7 sequence (O95218 1-330): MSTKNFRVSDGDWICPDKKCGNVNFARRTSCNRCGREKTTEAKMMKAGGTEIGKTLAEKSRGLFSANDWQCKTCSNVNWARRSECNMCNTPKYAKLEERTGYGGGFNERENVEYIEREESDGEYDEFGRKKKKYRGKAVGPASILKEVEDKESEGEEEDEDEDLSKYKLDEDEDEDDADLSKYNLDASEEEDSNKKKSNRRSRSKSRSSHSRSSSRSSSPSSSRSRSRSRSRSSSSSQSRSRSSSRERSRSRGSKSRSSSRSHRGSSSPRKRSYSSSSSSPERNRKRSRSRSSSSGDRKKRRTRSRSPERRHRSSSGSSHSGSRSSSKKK

T1 sequence (P61619 whole entry): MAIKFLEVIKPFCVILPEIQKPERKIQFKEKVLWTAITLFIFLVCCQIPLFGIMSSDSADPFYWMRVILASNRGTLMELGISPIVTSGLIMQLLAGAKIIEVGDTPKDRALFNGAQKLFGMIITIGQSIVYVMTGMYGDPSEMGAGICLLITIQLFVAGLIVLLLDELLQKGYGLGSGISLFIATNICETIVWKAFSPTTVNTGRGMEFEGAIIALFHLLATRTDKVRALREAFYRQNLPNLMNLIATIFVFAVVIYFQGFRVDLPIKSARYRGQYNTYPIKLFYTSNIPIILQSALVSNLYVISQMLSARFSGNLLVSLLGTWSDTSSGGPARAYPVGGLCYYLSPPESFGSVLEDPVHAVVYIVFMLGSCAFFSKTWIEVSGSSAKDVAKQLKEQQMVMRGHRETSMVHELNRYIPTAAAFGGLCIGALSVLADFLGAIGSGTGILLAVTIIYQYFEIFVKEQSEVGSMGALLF
T2 sequence (O60884 whole entry): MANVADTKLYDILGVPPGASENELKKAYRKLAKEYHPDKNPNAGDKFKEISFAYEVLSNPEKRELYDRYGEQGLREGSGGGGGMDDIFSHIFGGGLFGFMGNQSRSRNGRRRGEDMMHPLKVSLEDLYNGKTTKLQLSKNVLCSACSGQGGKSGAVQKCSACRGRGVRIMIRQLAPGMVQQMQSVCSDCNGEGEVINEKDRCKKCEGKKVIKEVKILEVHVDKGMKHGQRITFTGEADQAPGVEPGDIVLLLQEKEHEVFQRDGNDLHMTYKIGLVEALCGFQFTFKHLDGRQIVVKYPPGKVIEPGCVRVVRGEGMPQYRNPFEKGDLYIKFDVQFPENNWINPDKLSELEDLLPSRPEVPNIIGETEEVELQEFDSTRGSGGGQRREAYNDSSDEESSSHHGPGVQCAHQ
T6 sequence (P49327 whole entry): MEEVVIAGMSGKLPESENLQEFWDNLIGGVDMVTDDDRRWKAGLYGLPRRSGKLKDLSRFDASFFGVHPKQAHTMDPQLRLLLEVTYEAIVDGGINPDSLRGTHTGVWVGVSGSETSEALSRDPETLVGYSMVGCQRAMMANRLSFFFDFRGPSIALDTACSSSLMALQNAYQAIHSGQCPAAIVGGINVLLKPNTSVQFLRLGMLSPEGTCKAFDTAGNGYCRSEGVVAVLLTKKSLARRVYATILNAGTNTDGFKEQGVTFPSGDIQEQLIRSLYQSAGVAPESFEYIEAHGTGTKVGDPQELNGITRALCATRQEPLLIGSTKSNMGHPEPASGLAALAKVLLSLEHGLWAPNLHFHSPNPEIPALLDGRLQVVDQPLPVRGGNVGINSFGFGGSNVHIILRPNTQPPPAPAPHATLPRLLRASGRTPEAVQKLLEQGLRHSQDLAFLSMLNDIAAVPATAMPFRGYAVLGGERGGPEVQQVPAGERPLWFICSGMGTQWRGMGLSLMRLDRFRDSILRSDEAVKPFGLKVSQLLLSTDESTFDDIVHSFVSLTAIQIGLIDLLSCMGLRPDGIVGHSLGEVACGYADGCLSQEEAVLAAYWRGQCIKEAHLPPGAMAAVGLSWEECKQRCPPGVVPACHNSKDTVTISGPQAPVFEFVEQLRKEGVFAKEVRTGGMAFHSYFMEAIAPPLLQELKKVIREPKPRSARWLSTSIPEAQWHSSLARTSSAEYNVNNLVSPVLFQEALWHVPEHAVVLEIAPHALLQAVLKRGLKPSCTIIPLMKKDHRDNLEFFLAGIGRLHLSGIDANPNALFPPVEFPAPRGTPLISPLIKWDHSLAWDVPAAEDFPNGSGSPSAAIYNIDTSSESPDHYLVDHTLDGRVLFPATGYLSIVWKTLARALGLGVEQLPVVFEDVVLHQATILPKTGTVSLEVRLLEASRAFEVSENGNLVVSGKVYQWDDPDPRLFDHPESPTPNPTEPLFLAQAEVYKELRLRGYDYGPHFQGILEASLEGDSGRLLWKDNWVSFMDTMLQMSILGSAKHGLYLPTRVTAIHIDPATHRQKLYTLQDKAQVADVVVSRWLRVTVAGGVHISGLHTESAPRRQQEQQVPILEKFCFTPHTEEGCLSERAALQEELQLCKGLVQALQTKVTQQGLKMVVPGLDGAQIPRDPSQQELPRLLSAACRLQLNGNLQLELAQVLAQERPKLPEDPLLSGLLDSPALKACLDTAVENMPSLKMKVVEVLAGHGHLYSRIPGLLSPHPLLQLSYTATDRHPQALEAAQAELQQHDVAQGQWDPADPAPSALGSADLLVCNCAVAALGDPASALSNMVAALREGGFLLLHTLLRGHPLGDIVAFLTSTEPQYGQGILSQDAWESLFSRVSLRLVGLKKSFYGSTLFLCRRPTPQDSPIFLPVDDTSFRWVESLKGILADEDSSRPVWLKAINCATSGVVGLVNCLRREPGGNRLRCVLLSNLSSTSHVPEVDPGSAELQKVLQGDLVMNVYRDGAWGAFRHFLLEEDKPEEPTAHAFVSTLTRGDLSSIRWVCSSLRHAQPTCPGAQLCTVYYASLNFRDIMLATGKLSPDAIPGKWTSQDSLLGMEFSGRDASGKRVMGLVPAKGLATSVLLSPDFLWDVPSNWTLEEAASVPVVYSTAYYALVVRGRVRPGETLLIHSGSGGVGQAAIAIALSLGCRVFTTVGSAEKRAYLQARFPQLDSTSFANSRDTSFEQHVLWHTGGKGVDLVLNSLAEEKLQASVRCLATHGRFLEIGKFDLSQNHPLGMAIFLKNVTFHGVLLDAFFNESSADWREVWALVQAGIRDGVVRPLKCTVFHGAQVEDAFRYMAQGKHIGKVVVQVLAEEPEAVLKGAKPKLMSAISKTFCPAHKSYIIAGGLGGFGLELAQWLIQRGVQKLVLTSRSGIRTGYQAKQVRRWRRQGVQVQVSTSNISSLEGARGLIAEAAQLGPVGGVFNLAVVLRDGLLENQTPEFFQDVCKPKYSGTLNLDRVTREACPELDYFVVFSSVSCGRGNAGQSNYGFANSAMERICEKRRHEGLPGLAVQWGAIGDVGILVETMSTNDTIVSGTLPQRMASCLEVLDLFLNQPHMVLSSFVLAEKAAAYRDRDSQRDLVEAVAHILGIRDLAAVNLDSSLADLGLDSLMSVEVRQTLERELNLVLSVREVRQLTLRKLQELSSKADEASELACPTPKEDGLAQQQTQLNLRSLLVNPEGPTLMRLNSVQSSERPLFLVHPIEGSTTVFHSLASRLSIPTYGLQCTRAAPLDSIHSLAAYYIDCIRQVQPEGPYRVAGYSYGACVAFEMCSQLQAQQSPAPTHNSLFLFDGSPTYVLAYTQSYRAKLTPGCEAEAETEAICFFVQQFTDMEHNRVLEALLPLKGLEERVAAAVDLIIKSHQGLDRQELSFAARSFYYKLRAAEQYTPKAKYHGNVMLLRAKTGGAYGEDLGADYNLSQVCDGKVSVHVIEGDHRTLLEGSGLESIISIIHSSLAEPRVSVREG

For `Nc1nc2c(c(=O)[nH]1)N(C=O)C(CNc1ccc(C(=O)N[C@@H](CCC(=O)O)C(=O)O)cc1)CN2` (stereo partly shown) [LEU, leucovorin], the “fold changes relative to vehicle control” value ([1]; HeLa, protein SEC61A1) was 0.99, the “fold changes relative to vehicle control” value ([2]; protein DNAJA2, HeLa) was 0.86 and the “fold changes relative to vehicle control” value ([3]; HeLa, protein PFN2) was 1.07. For the same molecule, the “fold changes relative to vehicle control” value ([4]; protein ACAD10, HeLa) was 0.96, the “fold changes relative to vehicle control” value ([5]; HeLa, protein STT3A) was 1.1 and the “fold changes relative to vehicle control” value ([6]; HeLa, captured protein FASN) was 1.13. The “fold changes relative to vehicle control” value ([7]; protein ZRANB2, HeLa) was 0.82.
With `NCCCNc1ccc(C(=O)NC(CCC(=O)O)C(=O)O)cc1` (stereo not shown) [compound 7] the “fold changes relative to vehicle control” value ([1]; HeLa, protein SEC61A1) was 1.06, the “fold changes relative to vehicle control” value ([2]; protein DNAJA2, HeLa) was 0.91 and the “fold changes relative to vehicle control” value ([3]; HeLa, protein PFN2) was 1.15. For the same molecule, the “fold changes relative to vehicle control” value ([4]; protein ACAD10, HeLa) was 0.95, the “fold changes relative to vehicle control” value ([5]; HeLa, protein STT3A) was 0.93 and the “fold changes relative to vehicle control” value ([6]; HeLa, captured protein FASN) was 1.2. For the same molecule, the “fold changes relative to vehicle control” value ([7]; protein ZRANB2, HeLa) was 0.77.
With `CCCCCCOc1cccc(Cc2cnc(N)nc2N)c1` [compound 2] the “fold changes relative to vehicle control” value ([1]; HeLa, protein SEC61A1) was 1.01, the “fold changes relative to vehicle control” value ([2]; protein DNAJA2, HeLa) was 1.14 and the “fold changes relative to vehicle control” value ([3]; protein PFN2, HeLa) was 0.99. For the same molecule, the “fold changes relative to vehicle control” value ([4]; captured protein ACAD10, HeLa) was 0.84, the “fold changes relative to vehicle control” value ([5]; HeLa, protein STT3A) was 1.08 and the “fold changes relative to vehicle control” value ([6]; protein FASN, HeLa) was 1.25. The “fold changes relative to vehicle control” value ([7]; HeLa, protein ZRANB2) was 1.23.
With `CCCCCCOc1ccc(Cc2cnc(N)nc2N)cc1` [compound 1] the “fold changes relative to vehicle control” value ([1]; HeLa, protein SEC61A1) was 1.02, the “fold changes relative to vehicle control” value ([2]; protein DNAJA2, HeLa) was 0.92 and the “fold changes relative to vehicle control” value ([3]; protein PFN2, HeLa) was 1.23. The “fold changes relative to vehicle control” value ([4]; captured protein ACAD10, HeLa) was 0.84, the “fold changes relative to vehicle control” value ([5]; HeLa, protein STT3A) was 0.96 and the “fold changes relative to vehicle control” value ([6]; protein FASN, HeLa) was 1.07. For the same molecule, the “fold changes relative to vehicle control” value ([7]; HeLa, protein ZRANB2) was 1.04.
In the case of `Nc1nc2cccc(-c3ccccc3)c2n1Cc1ccc(Cl)c(Cl)c1` [compound 3], the “fold changes relative to vehicle control” value ([1]; HeLa, protein SEC61A1) is reported as 1, the “fold changes relative to vehicle control” value ([2]; protein DNAJA2, HeLa) is reported as 0.95 and the “fold changes relative to vehicle control” value ([3]; protein PFN2, HeLa) is reported as 1.1. For the same molecule, the “fold changes relative to vehicle control” value ([4]; captured protein ACAD10, HeLa) was 0.94, the “fold changes relative to vehicle control” value ([5]; HeLa, protein STT3A) was 1.36 and the “fold changes relative to vehicle control” value ([6]; protein FASN, HeLa) was 1.17. The “fold changes relative to vehicle control” value ([7]; HeLa, protein ZRANB2) was 0.98.
For `NCCOCCOCC(=O)Nc1nc2ncc(CNc3ccc(C(=O)NC(CCC(=O)O)C(=O)O)cc3)nc2c(=O)[nH]1` (stereo not shown) [compound 6], the “fold changes relative to vehicle control” value ([1]; HeLa, protein SEC61A1) was 1.03, the “fold changes relative to vehicle control” value ([2]; protein DNAJA2, HeLa) was 1.01 and the “fold changes relative to vehicle control” value ([3]; HeLa, protein PFN2) was 1.06. For the same molecule, the “fold changes relative to vehicle control” value ([4]; protein ACAD10, HeLa) was 0.76, the “fold changes relative to vehicle control” value ([5]; HeLa, protein STT3A) was 0.96 and the “fold changes relative to vehicle control” value ([6]; HeLa, captured protein FASN) was 1.2. For the same molecule, the “fold changes relative to vehicle control” value ([7]; protein ZRANB2, HeLa) was 0.95.
For `Nc1nc2[nH]cc(CCc3ccc(C(=O)N[C@@H](CCC(=O)O)C(=O)O)cc3)c2c(=O)[nH]1` [PTX, pemetrexed], the “fold changes relative to vehicle control” value [1] was 0.98, the “fold changes relative to vehicle control” value [2] was 0.9 and the “fold changes relative to vehicle control” value [3] was 1.01. The “fold changes relative to vehicle control” value [4] was 0.71, the “fold changes relative to vehicle control” value [5] was 0.89 and the “fold changes relative to vehicle control” value [6] was 1.09. For the same molecule, the “fold changes relative to vehicle control” value [7] was 0.87.
